Measurements taken from patent publication US9650380B2, “Difluoromethylene compound” (SATO PHARMACEUTICAL CO., LTD., priority 2012, dated 2017).

Molecular target: T1, human URAT1 (Homo sapiens, UniProt Q96S37)
T1 construct: Human URAT1 full-length cDNA was introduced to an expression vector pcDNA5/FRT/V5-His TOPO; expressed in transfected cells
T1 sequence (Q96S37 1-553): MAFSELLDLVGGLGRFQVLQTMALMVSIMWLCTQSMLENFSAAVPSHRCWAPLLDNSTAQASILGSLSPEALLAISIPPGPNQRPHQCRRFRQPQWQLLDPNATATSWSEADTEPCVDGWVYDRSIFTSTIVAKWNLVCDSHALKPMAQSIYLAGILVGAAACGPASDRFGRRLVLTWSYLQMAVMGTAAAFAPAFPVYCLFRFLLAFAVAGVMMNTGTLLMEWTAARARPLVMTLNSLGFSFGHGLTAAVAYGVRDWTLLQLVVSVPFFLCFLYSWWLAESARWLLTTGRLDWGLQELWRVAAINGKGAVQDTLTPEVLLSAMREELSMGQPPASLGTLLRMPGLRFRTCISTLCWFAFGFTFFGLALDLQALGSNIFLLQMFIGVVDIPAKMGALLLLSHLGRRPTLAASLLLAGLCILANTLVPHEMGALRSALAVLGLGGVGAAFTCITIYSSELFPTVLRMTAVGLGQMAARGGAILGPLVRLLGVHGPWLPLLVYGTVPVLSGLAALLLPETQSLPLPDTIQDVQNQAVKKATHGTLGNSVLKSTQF
Assay: Test for uric acid transport inhibition using human URAT1 expression cells
Format: cell-based
Conditions: human URAT1 stable expression CHO cells; 14C-labeled uric acid 38 μM final; incorporation 5 minutes at room temperature; 100% window defined with benzbromarone 100 μM; read-out: URAT1 inhibitory activity (IC50)
Procedure: In this Example, it was evaluated whether the Example compound and the Reference example compound mentioned below has the URAT1 inhibitory activity.
Human URAT1 full-length cDNA was introduced to an expression vector pcDNA5/FRT/V5-His TOPO (registered trademark) (Invitrogen Corporation). The obtained expression plasmid was introduced to Chinese hamster ovary cell (hereinafter referred to as the CHO cell) by the liposome method using Lipofectamine LTX (Invitrogen) and cultured in a selection medium including hygromycin, whereby to prepare human URAT1 stable expression cell.
The human URAT1 expression CHO cell were cultured using D-MEM/F-12 (1:1) mixed medium including 10% bovine fatal serum and hygromycin at 37° C. in the presence of 5% CO2. The cells were seeded onto a 96-well plate (Corning Incorporated) at 0.8×10^5 cells/well, and after 24 hours, the test for uric acid transport inhibition below was performed.
The medium was removed by aspiration, and then the cells were washed once with an assay buffer including 125 mM of sodium gluconate, 4.8 mM of potassium gluconate, 1.2 mM of potassium dihydrogen phosphate, 1.2 mM of magnesium sulfate, 1.3 mM of calcium gluconate and 5.6 mM of glucose, 50 μL assay buffer including the test compound in various concentrations was added, and further 50 μL assay buffer including a radioactive ligand (uric acid labeled with ^14C; 38 μM final concentration) was added, and incorporation reaction was performed at room temperature for 5 minutes. Immediately after the completion of the reaction, the reaction mixture was washed twice with 100 μL ice-cold assay buffer, and 100 μL of 0.1N sodium hydroxide was added. The reaction mixture was stirred to lyse the cells, and 4 mL of Hionic-Fluor (Packard BioScience CO.) was added, and then the radioactivity was measured with a liquid scintillation counter (Beckman Coulter, Inc. and Packard BioScience CO).
The radioactivitiy when each concentration of the test compound was added (uric acid incorporation activity, %) was calculated in which the difference of the radioactivity when the test compound was not added (DMSO added) and the radioactivity when a positive control compound, benzbromarone (a known URAT1 inhibitor) was added in 100 μM, was taken as 100%, and the concentration of the test compound when the uric acid incorporation activity was inhibited to 50% (IC50) was obtained.

| Compound | IC50 [nM] |
| --- | --- |
| O=C(O)c1cnc2c(C(F)(F)F)nn(Cc3c(Cl)cccc3C3CC3)c2c1 [Reference Example 5, 1-(2-chloro-6-cyclopropylbenzyl)-3-trifluoromethyl-1H-pyrazolo[4,3-b]pyridine-6-carboxylic acid, reference compound] | 13 |
| Cc1nn(Cc2c(C#N)ccnc2Cl)c2cc(C(F)(F)c3nnn[nH]3)ccc12 [Example 92, 2-chloro-3-{6-[difluoro(1H-tetrazol-5-yl)methyl]-3-methyl-1H-indazol-1-ylmethyl}isonicotinonitrile] | 21 |
| Cc1nn(Cc2c(Cl)cccc2Cl)c2cc(C(O)c3nnn[nH]3)ccc12 (stereo not drawn) [Reference Example 9, [1-(2,6-dichlorobenzyl)-3-methyl-1H-indazol-6-yl](1H-tetrazol-5-yl)methanol, reference compound] | 78 |
| O=C(O)Cc1ccc2c(C(F)(F)F)nn(Cc3c(Cl)cccc3Cl)c2c1 [Reference Example 11, [1-(2,6-dichlorobenzyl)-3-trifluoromethyl-1H-indazol-6-yl]acetic acid, reference compound] | 15 |
| O=C(O)c1cnc2c(Cl)nn(Cc3c(Cl)cccc3C3CC3)c2c1 [Reference Example 3, 3-chloro-1-(2-chloro-6-cyclopropylbenzyl)-1H-pyrazolo[4,3-b]pyridine-6-carboxylic acid, reference compound] | 32 |
| Cc1nn(Cc2c(C#N)cccc2C2CC2)c2cc(C(F)(F)C(=O)O)ccc12 [example 32, [1-(2-cyano-6-cyclopropylbenzyl)-3-methyl-1H-indazol-6-yl]difluoroacetic acid] | 23 |
| Cc1cccc(C#N)c1Cn1nc(C)c2ccc(C(F)(F)c3nnn[nH]3)nc21 [Example 109, 2-{6-[difluoro(1H-tetrazol-5-yl)methyl]-3-methyl-1H-pyrazolo[3,4-b]pyridin-1-ylmethyl}-3-methylbenzonitrile] | 13 |
| Cc1nn(Cc2cccc(Cl)c2Cl)c2cc(C(F)(F)C(=O)O)ccc12 [example 14, [1-(2,3-dichlorobenzyl)-3-methyl-1H-indazol-6-yl]difluoroacetic acid] | 48 |
| Cc1nn(Cc2c(F)cccc2Cl)c2cc(C(F)(F)c3n[nH]c(=O)o3)ccc12 [Example 101, 5-{[1-(2-chloro-6-fluorobenzyl)-3-methyl-1H-indazol-6-yl]difluoromethyl}-1,3,4-oxadiazol-2(3H)-one] | 9 |
| Cc1nn(Cc2c(Cl)cccc2C2CC2)c2cc(CCC(=O)O)ccc12 [Reference Example 8, 3-[1-(2-chloro-6-cyclopropylbenzyl)-3-methyl-1H-indazol-6-yl]propionic acid, reference compound] | 24 |
| Cc1cccc(C(N)=O)c1Cn1nc(C)c2ccc(C(F)(F)c3nnn[nH]3)nc21 [example 110, 2-{6-[difluoro(1H-tetrazol-5-yl)methyl]-3-methyl-1H-pyrazolo[3,4-b]pyridin-1-ylmethyl}-3-methylbenzamide] | 44 |
| Cc1cn(Cc2c(Cl)cccc2Cl)c2cc(C(F)(F)C(=O)O)ccc12 [Example 49, [1-(2,6-dichlorobenzyl)-3-methyl-1H-indol-6-yl]difluoroacetic acid] | 38 |

The remaining compounds from weak to strong by IC50, led by results:

| IC50 [nM] | Compound |
| --- | --- |
| 390 | Cc1nn(Cc2c(C#N)cccc2CO)c2cc(C(F)(F)C(=O)O)ccc12 [example 53, [1-(2-cyano-6-hydroxymethylbenzyl)-3-methyl-1H-indazol-6-yl]difluoroacetic acid] |
| 268 | Cc1cccc(C#N)c1Cn1nc(CO)c2ccc(C(F)(F)C(=O)O)cc21 [example 121, [1-(2-cyano-6-methylbenzyl)-3-hydroxymethyl-1H-indazol-6-yl]difluoroacetic acid] |
| 107 | O=C(O)C(F)(F)c1ccc2c(C(F)(F)F)nn(Cc3c(Cl)cccc3Cl)c2c1 [Example 36, [1-(2,6-dichlorobenzyl)-3-trifluoromethyl-1H-indazol-6-yl]difluoroacetic acid] |
| 36 | Cc1nn(Cc2c(C(N)=O)cccc2C2CC2)c2nc(C(F)(F)c3nnn[nH]3)ccc12 [example 116, 3-cyclopropyl-2-{6-[difluoro(1H-tetrazol-5-yl)methyl]-3-methyl-1H-pyrazolo[3,4-b]pyridin-1-ylmethyl}benzamide] |
| 26 | Cc1cccc(Cl)c1Cn1nc(C)c2ccc(C(F)(F)C(=O)O)cc21 [Example 3, [1-(2-chloro-6-methylbenzyl)-3-methyl-1H-indazol-6-yl]difluoroacetic acid] |
| 15 | O=C(O)C(F)(F)c1ccc2c(Cl)nn(Cc3c(Cl)cccc3Cl)c2c1 [Example 34, [3-chloro-1-(2,6-dichlorobenzyl)-1H-indazol-6-yl]difluoroacetic acid] |
